# Test results published in publication PMC2896318 (Biochemistry, 2009).
# Where two headings read alike, the source gives them in different places.
# How the values were obtained:
# [1] = Spontaneous hydrolysis of diaroyl phosphates in buffer; assay type: physicochemical; settings: values are ko × 10^6; 25 mM MOPS buffer, pH 7.5, 25 °C
# [2] = target: OXA-1 β-lactamase (Escherichia coli, UniProt P13661); test: Inhibition of class D β-lactamase OXA-1; assay type: biochemical
# [3] = target: T1, Enterobacter cloacae P99 β-lactamase (Enterobacter cloacae, UniProt P05364); test: biochemical
# [4] = target: Escherichia coli W3310 TEM-2 β-lactamase (Escherichia coli, UniProt P62593, Q37K); test: Inhibition and turnover kinetics with TEM-2 β-lactamase; assay type: biochemical; settings: for TEM k2 × 10^3 (deacylation rate constant): values are k2 × 10^3, pH 7.5, 25 °C
# [5] = target: T1, Enterobacter cloacae P99 β-lactamase; settings: for Ki: read-out: P99 K1
# [6] = target: T1, Enterobacter cloacae P99 β-lactamase; settings: previously determined ratio; cited from earlier work
# [7] = footnote b: calculated from ki = k2/Ki
# [8] = high inhibitor concentrations (>100 μM)
# T1 sequence (P05364 21-381): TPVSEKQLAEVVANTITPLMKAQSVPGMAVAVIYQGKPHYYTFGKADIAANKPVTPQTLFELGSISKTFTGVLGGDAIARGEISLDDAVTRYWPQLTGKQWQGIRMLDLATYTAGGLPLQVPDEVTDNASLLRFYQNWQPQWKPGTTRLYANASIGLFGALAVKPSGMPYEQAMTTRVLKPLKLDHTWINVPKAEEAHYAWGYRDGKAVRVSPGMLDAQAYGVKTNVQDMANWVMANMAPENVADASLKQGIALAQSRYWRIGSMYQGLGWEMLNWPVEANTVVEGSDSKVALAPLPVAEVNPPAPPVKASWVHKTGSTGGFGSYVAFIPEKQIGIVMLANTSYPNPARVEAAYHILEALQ
# Chain of OXA-1 β-lactamase (P13661 26-276): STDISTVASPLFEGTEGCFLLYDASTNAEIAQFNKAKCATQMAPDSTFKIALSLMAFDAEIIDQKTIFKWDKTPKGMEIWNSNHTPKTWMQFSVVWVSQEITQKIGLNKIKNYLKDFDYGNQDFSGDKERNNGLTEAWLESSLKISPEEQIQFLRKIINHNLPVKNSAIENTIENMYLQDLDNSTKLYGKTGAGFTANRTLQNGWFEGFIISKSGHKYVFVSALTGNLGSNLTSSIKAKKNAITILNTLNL
SMILES,ko × 10^6 (spontaneous hydrolysis rate constant) [1],Ki [2],Ki [3],"TEM ki (acylation rate constant) [4, 7]",TEM k2 × 10^3 (deacylation rate constant) [4],"P99 k2 × 10^3 (deacylation rate constant) ([5]; values are k2 × 10^3, pH 7.5, 25 °C)","Ki ([2]; read-out: Ki for OXA-1, class D β-lactamase)",P99 ki (acylation rate constant) [5],P99 k2 × 10^3 (deacylation rate constant) ([5]; pH 7.5),Ki [5],"k3 (rearrangement of EI to more inert EI′, Scheme 5) [4, 8]","k4 (breakdown of EI′ to free enzyme, Scheme 5) [4, 8]","TEM ki (acylation rate constant) ([4]; pH 7.5, 20 mM MOPS, 25 °C, from progress curve fits)","Ki ([4]; read-out: TEM Ki, footnote a: calculated from Ki = k2/ki)",k3/k2 (methanol vs water partitioning of acyl-enzyme) [6],P99 ki (acylation rate constant) ([5]; pH 7.5)
"O=C(OP(=O)([O-])OC(=O)c1cc2ccccc2o1)c1cc2ccccc2o1.[Na+] [compound 12, Sodium bis[2-benzo(b)furancarbonyl] phosphate]",285 s^−1,14200 nM,1300 ± 300 nM,1.8 ^b s^−1mM^−1,74 ± 1 s^−1,354 ± 26 s^−1,,,,,,,,,,
"O=C(OP(=O)([O-])OC(=O)c1cc2ccccc2s1)c1cc2ccccc2s1.[Na+] [compound 11, Sodium bis[benzo(b)thiophenecarbonyl] phosphate]",54.1 s^−1,,,53 ^b s^−1mM^−1,79 ± 2 s^−1,,60 nM,69600 ^b s^−1mM^−1,211 ± 6 s^−1,3 nM,,,,,,
"O=C(OP(=O)(O)OC(=O)c1ccccc1)c1ccccc1 [compound 5, dibenzoyl phosphate]",0.78 s^−1,,,,38 ± 3 s^−1,,,,9.3 ± 0.2 s^−1,1330 nM,(3.3 ± 0.7) × 10^−4 s^−1,0.00015 s⁻¹,0.5 ± 0.1 s⁻¹ mM⁻¹,76000 nM,23.6,7 ± 1 s⁻¹ mM⁻¹
